In US20200009110A1, “METHOD FOR TREATING AN ALLERGIC DISEASE” (Arjil Biotech Holding Company Limited, priority 2018, published 2020):
Entries after “also recorded” stand apart in the source; their conditions may differ.

Key:
[1] = system: BALB/c mice with Con A-induced hepatitis; experiment: Con A-induced acute (autoimmune) hepatitis animal experiment; format: in vivo
Source text: Concanavalin A (Con A) and dexamethasone (Dex) were purchased from Sigma-Aldrich (USA). ProcartaPlex™ Immunoassays kit was purchased from Corning Inc. (USA). GOP and GPT Fuji Dri-Chem slides were purchased from Winning Medical Inc. (Taiwan).
Male BALB/c mice (7-9 weeks old) were purchased from BioLASCO Taiwan Co., Ltd or National Laboratory Animal Center (NLAC, Taiwan). Animals were housed five per cage with food and water provided ad libitum throughout the experiments. Room temperature was maintained at 23±2° C. with an alternating 12 h light-dark cycle. Animals were acclimatized for one week to minimize the effect of stress before the experiments. All experimental protocols involving animals and their care were approved by the Institutional Animal Care and Use Committee (IACUC) in ITRI (ITRI-IACUC-2018-041 and ITRI-IACUC-2018-050; accredited by AAALAC) and were carried out according to the regulations of the Council of Agriculture, Taiwan.
Con A was dissolved in pyrogen-free saline at a concentration of 3 mg/ml and intravenously injected at a dose of 15 mg/kg or 20 mg/kg of body weight to induce hepatitis. AR100DS1 and Dex were orally administered 30 min before and then 4 h and 8 h after Con A treatment. Blood and liver tissues were collected 24 h after Con A treatment. Serum were stored at −80° C. until analysis.
To assess the level of hepatocellular injury after Con A treatment, serum GPT and GOT levels were measured by Fuji Dri-Chem slides (Fuji, Japan).
The serum of the same group were pooled for cytokine assay. Cytokine levels were measured by ProcartaPlex™ Immunoassays kit according to manufacturer's instructions.
Liver tissues were fixed in 10% phosphate-buffered formaldehyde, embedded in paraffin, and stained with hematoxylin and eosin (H&E) in order to confirm tissue lesions. Tissue lesions were examined microscopically by a veterinary pathologist at BioLASCO Taiwan Co., Ltd. The criteria of severity grading system for all microscopic lesions were graded from 0 to 4 as follows: 0=none; 1=individual cell necrosis; 2=≤30% lobular necrosis; 3=≤60% lobular necrosis; 4=22 60% lobular necrosis.
Data are presented as mean±SEM. In this study, Student's t-test was used to analyze the differences between drug-and vehicle-treated groups. The difference is regarded statistically significant when p value is less than 0.05.
Autoimmune hepatitis (AIH) is a complex disease which is characterized by hepatocellular inflammation, necrosis, and a tendency to cirrhosis. The plant lectin concanavalin A (Con A)-induced acute hepatitis in BALB/c mice is a common animal model for AIH and we performed this model to evaluate the anti-hepatitis effects of AR001DS1. Dexamethasone (Dex), one of the steroids-based standard treatments of AIH, was used as a positive control.

[2] = system: TNF-α secretion in DCs from C57BL/6 mice; experiment: ELISA assay for TNF-α secretion by LPS-stimulated dendritic cells; format: cell-based; settings: AR001DS1 12.5, 25, 50 and 100 μg/ml
Description: DCs were isolated from C57BL/6 mice and incubated at 37° C. for 7 days. Then DCs were plated in a 24-well plate and cultured at 37° C. overnight in a 5% CO2 atmosphere. DCs were treated with AR001DS1 (12.5, 25, 50 and 100 μg/ml) for 1 h, and then stimulated with lipopolysaccharide (LPS) for 4 h. The supernatants were collected and TNF-α secretion in culture supernatants was quantitated using an ELISA assay.

[3] = system: PMA-induced cytokines in THP-1 cells; experiment: Bio-plex human 27-plex cytokine assay in PMA treated THP-1 cells; format: cell-based; settings: 10 μg/ml for 0.5 hr, then PMA 10 ng/ml for 24 hr
Source text: In addition to IL-1β, several cytokines participated in inflammatory responses. To identify cytokine networks affected by AR001DS1, we performed Bio-plex analysis to monitor the effect of AR001DS1 treatment on the expression of human 27 cytokines in PMA treated THP-1 cells.

[4] = system: IL-1β expression in PMA-activated THP-1 cells; experiment: PMA-induced IL-1β expression in THP-1 cells (Q-PCR, immunoblotting); format: cell-based; settings: for IL-1β mRNA expression, treatment after activation: PMA for 24 h, followed by treatment for another 24 h; for IL-1β mRNA and protein expression, pretreatment: pretreated 0.5 h, followed by PMA induction for 48 h
Description: Q-PCR analysis (left) and immunoblotting (right) for IL-1β mRNA and protein expression in THP-1 cells pretreated with AR001DS1 or AR001DS2 for 0.5 h, followed by PMA induction for 48 h.
Q-PCR analysis for IL-1β mRNA expression in THP-1 cells stimulated with PMA for 24 h, followed by treatment with or without AR001DS1 or AR001DS2 for another 24 h.
Because AR100 was composed of AR001DS1 and AR001DS2, THP-1 cells were independently pre-treated with the two components, followed by PMA activation.

RBL-2H3 cells = experiment: β-Hexosaminidase secretion assay (mast cell degranulation); format: cell-based; settings: 12.5, 25, 50 and 100 μg/ml, anti-DNP IgE-sensitized, DNP-BSA stimulated
Description: RBL-2H3 cells were plated in a 24-well plate and then sensitized with anti-dinitrophenyl (DNP)-IgE overnight at 37° C. in a 5% CO2 atmosphere. After washing, the cells were treated with AR001DS1 (12.5, 25, 50 and 100 μg/ml) at 37° C. for 30 min, and then stimulated with DNP-bovine serum albumin (BSA) at 37° C. for 30 min to induce degranulation. The supernatant was transferred to a 96-well microplate and incubated for 2 h with equal volume of 5 mM 4-nitrophenyl N-acetyl-b-glucosaminide in 0.1M citrate buffer (pH 4.5). The reaction was terminated by adding […] of stop buffer (0.05 M sodium carbonate, pH 10), and OD at 405 nm was determined using an ELISA plate reader.

[5] = system: animal model of gout arthritis; experiment: Animal model of gout arthritis; settings: in vivo

SMILES: C[C@@H]1C[C@H]2[C@@H]3CCC4=CC(=O)C=C[C@]4(C)[C@@]3(F)[C@@H](O)C[C@]2(C)[C@@]1(O)C(=O)CO [Dex, dexamethasone]
- serum GPT ([1]; 15 mg/kg Con A, oral, Con A alone 1437±398): 898±515 U/L
- serum GOT ([1]; 15 mg/kg Con A, oral, Con A alone 1450±433): 809±339 U/L
- liver necrosis histopathological score (0-4) ([1]; 15 mg/kg Con A, Con A alone 2.2±0.2): 1.6±0.6
- liver necrosis histopathological score (0-4) ([1]; 20 mg/kg Con A): 2.6±0.2
- serum GPT ([1]; 20 mg/kg Con A, oral): 1940±403 U/L
- serum GOT ([1]; 20 mg/kg Con A, oral, Con A alone 2249±549): 1261±282 U/L

SMILES: O=c1c(O)c(-c2ccc(O)c(O)c2)oc2cc(O)cc(O)c12 [quercetin, reference compound]
- secretion of TNF-α [2]: effectively reduced the secretion of TNF-α

SMILES: C=C1C(=O)OC2/C=C(\C)CC3C=C(CC/C=C(\C)CCC12)C(=O)O3 (stereo not drawn) [AR001DS1, ovatodiolide]
- IL-1β expression (Bio-plex) [3]: attenuated its expression
- MIP-α and -β expression (Bio-plex) [3]: blocked their expressions
- induction of IL-8, TNF-α and RANTES (Bio-plex) [3]: inhibited
- IL-1β mRNA expression, treatment after activation [4]: inhibits PMA-induced IL-1β expression
- IL-1β mRNA expression, treatment after activation ([4]; listed as AR100DS1): attenuated the expression of IL-1β
- IL-1β mRNA and protein expression, pretreatment [4]: blocked the expression of IL-1β; also recorded: inhibits PMA-induced IL-1β expression
- secretion of β-hexosaminidase (degranulation) (RBL-2H3 cells): significantly inhibited; also recorded: suppress mast cell degranulation in a dose-dependent manner
- effect on gout arthritis [5]: therapeutic effects
- liver necrosis histopathological score (0-4) ([1]; 50 mg/kg oral, 15 mg/kg Con A, vehicle 1.4±0.2): 0.2±0.2
- serum GPT ([1]; 50 mg/kg oral, 15 mg/kg Con A, vehicle 368±107, p<0.05): 109±25 U/L
- serum GOT ([1]; 50 mg/kg oral, 15 mg/kg Con A, vehicle 410±56): 261±45 U/L
- secretion of TNF-α [2]: better inhibitory effect on the secretion of TNF-α in LPS-stimulated DCs than quercetin; also recorded: suppress TNF-α secretion by dendritic cells (DCs) in a dose-dependent manner

SMILES: C=CC(OC(C)=O)c1ccc(OC(C)=O)cc1 (stereo not drawn) [AR001DS2, 1′-acetoxychavicol acetate]
- IL-1β mRNA expression, treatment after activation [4]: did not suppressed
- IL-1β mRNA and protein expression, pretreatment [4]: blocked the expression of IL-1β; also recorded: inhibits PMA-induced IL-1β expression
